Experimental data: patent EP0908457B1, “3-(1,2-benzisothiazol- and isoxazol-5-Y1)-2,4(1H,3H)-pyrimidinedione or thione and 3-(1,2-benzisothiazol- and isoxazol-5-y1)-4(3H)-pyrimidinone or thione herbicidal agents” (BASF AKTIENGESELLSCHAFT, priority 1997, dated 1999)

Assays:
Cyperus iria [1] = test: Preemergence weed control under flooded paddy conditions, CYPIR (Rice Flatsedge); assay type: in vivo; conditions: preemergence weeds, flooded paddy, herbicidal effect rating 0-9, three to four weeks after treatment
[2] = test system: Echinochloa oryzoides (Ard.) Fritsch.; test: Postemergence weed control under flooded paddy conditions, ECHORC (Watergrass (Calif.)); assay type: in vivo; conditions: rated three to four weeks after treatment
[3] = test system: Oryza sativa, (L.) Tebonnet; test: Rice tolerance to post-transplant applications under flooded paddy conditions (Example 187), ORYSAT (Rice, Tebonnet); conditions: herbicidal effect rating 0-9, three to four weeks after treatment
Sagittaria pygmaea, L. [4] = test: Postemergence weed control under flooded paddy conditions, SAGPY (Arrowhead (Pygmaea)); assay type: in vivo; conditions: rated three to four weeks after treatment
[5] = test system: Cyperus serotinus, Rottb.; test: Postemergence weed control under flooded paddy conditions, CYPSE (Flatsedge); assay type: in vivo; conditions: rated three to four weeks after treatment
[6] = test system: Oryza sativa, (L.) Tebonnet; test: Rice tolerance to post-transplant applications under flooded paddy conditions (Example 188), ORYSAT (Rice, Tebonnet); conditions: rated three to four weeks after treatment
[7] = test system: Cyperus serotinus, Rottb.; test: Preemergence weed control under flooded paddy conditions, CYPSE (Flatsedge); assay type: in vivo; conditions: preemergence weeds, herbicidal effect rating 0-9, three to four weeks after treatment
[8] = test system: Monochoria vaginalis, Presl.; test: Preemergence weed control under flooded paddy conditions, MOOVA (Monochoria); assay type: in vivo; conditions: preemergence weeds, flooded paddy, herbicidal effect rating 0-9, three to four weeks after treatment
Sagittaria pygmaea, L. [9] = test: Preemergence weed control under flooded paddy conditions, SAGPY (Arrowhead (Pygmaea)); assay type: in vivo; conditions: preemergence weeds, flooded paddy, herbicidal effect rating 0-9, three to four weeks after treatment
[10] = test system: Monochoria vaginalis, Presl.; test: Postemergence weed control under flooded paddy conditions, MOOVA (Monochoria); assay type: in vivo; conditions: rated three to four weeks after treatment
Cyperus iria [11] = test: Postemergence weed control under flooded paddy conditions, CYPIR (Rice Flatsedge); assay type: in vivo; conditions: rated three to four weeks after treatment
[12] = test system: Echinochloa oryzoides (Ard.) Fritsch.; test: Preemergence weed control under flooded paddy conditions, ECHORC (Watergrass (Calif.)); assay type: in vivo; conditions: preemergence weeds, flooded paddy, herbicidal effect rating 0-9, three to four weeks after treatment

CCC(C#N)(CC)c1nsc2ccc(-n3c(=O)cc(C(F)(F)F)n(C)c3=O)cc12 [Example 445, 1,2-Benzisothiazole-3-acetonitrile, 5-[3,6-dihydro-3-methyl-2,6-dioxo-4-(trifluoromethyl)-1(2H)-pyrimidinyl]-alpha,alpha-diethyl-]
CYPIR (Cyperus iria [1]; 0.0320 kg/ha): 6.5
CYPIR (Cyperus iria [1]; 0.0620 kg/ha): 8.0
CYPIR (Cyperus iria [1]; 0.1250 kg/ha): 9.0
CYPIR (Cyperus iria [1]; 0.2500 kg/ha): 9.0
herbicidal effect rating, ECHORC ([2]; Rate 0.0320 kg/ha): 4.0
herbicidal effect rating, ECHORC ([2]; Rate 0.0620 kg/ha): 7.0
herbicidal effect rating, ECHORC ([2]; Rate 0.1250 kg/ha): 9.0
herbicidal effect rating, ECHORC ([2]; Rate 0.2500 kg/ha): 9.0
ORYSAT ([3]; 0.0320 kg/ha): 5.0
ORYSAT ([3]; 0.0620 kg/ha): 6.5
ORYSAT ([3]; 0.1250 kg/ha): 7.0
ORYSAT ([3]; 0.2500 kg/ha): 8.0
herbicidal effect rating, SAGPY (Sagittaria pygmaea, L. [4]; Rate 0.0320 kg/ha): 0.0
herbicidal effect rating, SAGPY (Sagittaria pygmaea, L. [4]; Rate 0.0620 kg/ha): 0.0
herbicidal effect rating, SAGPY (Sagittaria pygmaea, L. [4]; Rate 0.1250 kg/ha): 4.0
herbicidal effect rating, SAGPY (Sagittaria pygmaea, L. [4]; Rate 0.2500 kg/ha): 9.0
herbicidal effect rating, CYPSE ([5]; Rate 0.0320 kg/ha): 0.0
herbicidal effect rating, CYPSE ([5]; Rate 0.0620 kg/ha): 2.0
herbicidal effect rating, CYPSE ([5]; Rate 0.1250 kg/ha): 4.0
herbicidal effect rating, CYPSE ([5]; Rate 0.2500 kg/ha): 4.0
herbicidal effect rating, ORYSAT (rice tolerance) ([6]; Rate 0.0320 kg/ha): 3.0
herbicidal effect rating, ORYSAT (rice tolerance) ([6]; Rate 0.0620 kg/ha): 6.0
herbicidal effect rating, ORYSAT (rice tolerance) ([6]; Rate 0.1250 kg/ha): 7.0
herbicidal effect rating, ORYSAT (rice tolerance) ([6]; Rate 0.2500 kg/ha): 7.0
CYPSE ([7]; 0.0320 kg/ha): 7.5
CYPSE ([7]; 0.0620 kg/ha): 8.5
CYPSE ([7]; 0.1250 kg/ha): 8.0
CYPSE ([7]; 0.2500 kg/ha): 8.5
MOOVA ([8]; 0.0320 kg/ha): 9.0
MOOVA ([8]; 0.0620 kg/ha): 9.0
MOOVA ([8]; 0.1250 kg/ha): 9.0
MOOVA ([8]; 0.2500 kg/ha): 9.0
SAGPY (Sagittaria pygmaea, L. [9]; 0.0320 kg/ha): 4.5
SAGPY (Sagittaria pygmaea, L. [9]; 0.0620 kg/ha): 8.0
SAGPY (Sagittaria pygmaea, L. [9]; 0.1250 kg/ha): 8.5
SAGPY (Sagittaria pygmaea, L. [9]; 0.2500 kg/ha): 9.0
herbicidal effect rating, MOOVA ([10]; Rate 0.0320 kg/ha): 0.0
herbicidal effect rating, MOOVA ([10]; Rate 0.0620 kg/ha): 0.0
herbicidal effect rating, MOOVA ([10]; Rate 0.1250 kg/ha): 2.0
herbicidal effect rating, MOOVA ([10]; Rate 0.2500 kg/ha): 9.0
herbicidal effect rating, CYPIR (Cyperus iria [11]; Rate 0.0320 kg/ha): 4.0
herbicidal effect rating, CYPIR (Cyperus iria [11]; Rate 0.0620 kg/ha): 7.0
herbicidal effect rating, CYPIR (Cyperus iria [11]; Rate 0.1250 kg/ha): 9.0
herbicidal effect rating, CYPIR (Cyperus iria [11]; Rate 0.2500 kg/ha): 9.0
ECHORC ([12]; 0.0320 kg/ha): 8.5
ECHORC ([12]; 0.0620 kg/ha): 8.5
ECHORC ([12]; 0.1250 kg/ha): 9.0
ECHORC ([12]; 0.2500 kg/ha): 9.0

COc1cc(C)c(I)cc1-c1nsc2ccc(-n3c(=O)cc(C(F)(F)F)n(C)c3=O)cc12 [Example 429, 2,4(1H,3H)-Pyrimidinedione, 3-[3-(5-iodo-2-methoxy-p-tolyl)-1,2-benzisothiazol-5-yl]-1-methyl-6-(trifluoromethyl)-]
CYPIR (Cyperus iria [1]; 0.0320 kg/ha): 7.3
CYPIR (Cyperus iria [1]; 0.0620 kg/ha): 7.7
CYPIR (Cyperus iria [1]; 0.1250 kg/ha): 8.3
CYPIR (Cyperus iria [1]; 0.2500 kg/ha): 9.0
herbicidal effect rating, ECHORC ([2]; Rate 0.0320 kg/ha): 4.0
herbicidal effect rating, ECHORC ([2]; Rate 0.0620 kg/ha): 6.0
herbicidal effect rating, ECHORC ([2]; Rate 0.1250 kg/ha): 6.0
herbicidal effect rating, ECHORC ([2]; Rate 0.2500 kg/ha): 9.0
ORYSAT ([3]; 0.0320 kg/ha): 1.3
ORYSAT ([3]; 0.0620 kg/ha): 2.0
ORYSAT ([3]; 0.1250 kg/ha): 2.3
ORYSAT ([3]; 0.2500 kg/ha): 3.0
herbicidal effect rating, SAGPY (Sagittaria pygmaea, L. [4]; Rate 0.0320 kg/ha): 0.0
herbicidal effect rating, SAGPY (Sagittaria pygmaea, L. [4]; Rate 0.0620 kg/ha): 0.0
herbicidal effect rating, SAGPY (Sagittaria pygmaea, L. [4]; Rate 0.1250 kg/ha): 0.0
herbicidal effect rating, SAGPY (Sagittaria pygmaea, L. [4]; Rate 0.2500 kg/ha): 0.0
herbicidal effect rating, CYPSE ([5]; Rate 0.0320 kg/ha): 0.0
herbicidal effect rating, CYPSE ([5]; Rate 0.0620 kg/ha): 0.0
herbicidal effect rating, CYPSE ([5]; Rate 0.1250 kg/ha): 0.0
herbicidal effect rating, CYPSE ([5]; Rate 0.2500 kg/ha): 0.0
herbicidal effect rating, ORYSAT (rice tolerance) ([6]; Rate 0.0320 kg/ha): 1.0
herbicidal effect rating, ORYSAT (rice tolerance) ([6]; Rate 0.0620 kg/ha): 1.0
herbicidal effect rating, ORYSAT (rice tolerance) ([6]; Rate 0.1250 kg/ha): 2.0
herbicidal effect rating, ORYSAT (rice tolerance) ([6]; Rate 0.2500 kg/ha): 2.0
CYPSE ([7]; 0.0320 kg/ha): 0.0
CYPSE ([7]; 0.0620 kg/ha): 1.0
CYPSE ([7]; 0.1250 kg/ha): 1.0
CYPSE ([7]; 0.2500 kg/ha): 1.0
MOOVA ([8]; 0.0320 kg/ha): 9.0
MOOVA ([8]; 0.0620 kg/ha): 9.0
MOOVA ([8]; 0.1250 kg/ha): 9.0
MOOVA ([8]; 0.2500 kg/ha): 9.0
SAGPY (Sagittaria pygmaea, L. [9]; 0.0320 kg/ha): 2.0
SAGPY (Sagittaria pygmaea, L. [9]; 0.0620 kg/ha): 2.3
SAGPY (Sagittaria pygmaea, L. [9]; 0.1250 kg/ha): 2.3
SAGPY (Sagittaria pygmaea, L. [9]; 0.2500 kg/ha): 3.0
herbicidal effect rating, MOOVA ([10]; Rate 0.0320 kg/ha): 2.0
herbicidal effect rating, MOOVA ([10]; Rate 0.0620 kg/ha): 4.0
herbicidal effect rating, MOOVA ([10]; Rate 0.1250 kg/ha): 7.0
herbicidal effect rating, MOOVA ([10]; Rate 0.2500 kg/ha): 7.0
herbicidal effect rating, CYPIR (Cyperus iria [11]; Rate 0.0320 kg/ha): 4.0
herbicidal effect rating, CYPIR (Cyperus iria [11]; Rate 0.0620 kg/ha): 6.0
herbicidal effect rating, CYPIR (Cyperus iria [11]; Rate 0.1250 kg/ha): 7.0
herbicidal effect rating, CYPIR (Cyperus iria [11]; Rate 0.2500 kg/ha): 9.0
ECHORC ([12]; 0.0320 kg/ha): 9.0
ECHORC ([12]; 0.0620 kg/ha): 9.0
ECHORC ([12]; 0.1250 kg/ha): 9.0
ECHORC ([12]; 0.2500 kg/ha): 9.0
